{"source": "patent US20130040882A1", "about": "“USE OF FIBROBLAST GROWTH FACTOR FRAGMENTS” (NOVARTIS AG, priority 2003, published 2013)", "key": {"uterine gene expression": {"test_system": "uterine gene expression", "experiment": "Gene expression profiling (HGU133A) in the uterus of ovariectomized monkeys treated with estradiol, tamoxifen or raloxifene", "format": "in vivo, cynomolgus monkeys (Macaca fascicularis)"}, "[1]": {"test_system": "luteinising hormone and follicle-stimulating hormone genes in the pituitary gland", "experiment": "Gene expression (HGU133A) in the pituitary gland of ovariectomized monkeys treated with estradiol, tamoxifen or raloxifene", "format": "in vivo, cynomolgus monkeys (Macaca fascicularis)", "conditions": "OVX monkeys", "procedure": "Female sexually mature cynomolgus monkeys (Macaca fascicularis obtained from R. C. Hartelust B V, Tilburg, the Netherlands) approximately 48 months old were subjected to surgery (ovarectomy [OVX] or sham) 10 weeks prior to treatment and were treated for parasitic arthropods and helminthes, subjected to a tuberculin testing, and acclimated to the treatment facility for at least 14 days before beginning treatment.\nSurgical Procedures. The ovariectomized cynomolgus monkey (Macaca fascicularis), which has been validated as a useful model predictive of outcomes in human clinical trials of estrogen and SERMs (Cline J M et al., Toxicol Pathol. 29:84-90 (2001)), was used as a model of estrogen deficiency. Animals were ovariectomized approximately 10 weeks before the first day of treatment. The ovaries were removed following anesthesia with a combined intramuscular injection of xylazine (Rompun®: 0.4 mL/animal, Bayer Pharma Division Sante Animale, Puteaux, France) and ketamine hydrochloride (Imalgéne®: 0.6 mL/kg, Mérial, Lyon, France). Sham-operated animals were subjected to the same surgical procedure, except for the removal of ovaries.\nOvariectomized and sham-operated animals were divided into groups of 4 and treated as outlined below.\nGene expression was determined in the pituitary and uterus at the end of drug therapy. Tissues to be analyzed (pituitary glands and uterus) were excised, snap frozen in liquid nitrogen, and stored at −80° C. until RNA extraction was performed.\nTotal RNA was obtained by acid guanidinium isothiocyanate-phenol-chloroform extraction (Trizol; Invitrogen Life Technologies, San Diego, Calif., USA) and purified on an affinity resin column (RNeasy; Qiagen, Hilden, Germany) according to manufacturer instructions. […] Lockhart D J, Dong H, Byrne M C, et al. Nat. Biotechnol. 1996; 14:1675-1680.\nPrevious studies have proven the validity of cross-species DNA chip analysis (Hacia J G et al. Nat Genet. 18:155-158 (1998)), therefore, the human gene expression probe arrays HGU133A (Affymetrix, Santa Clara, Calif., USA) containing 22,283 probe sets interrogating primarily annotated human genes were used. One GeneChip was used per tissue, per animal. The resulting image files (.dat files) were processed using the Microarray Analysis Suite 5 (MAS5) software (Affymetrix, Inc.). Tab-delimited files were obtained containing data regarding signal intensity (Signal) and categorical expression level measurement (Absolute Call)."}, "[2]": {"test_system": "gene expression in organs", "experiment": "Blind monkey trial of three peptides: gene expression profiling of organs on Affymetrix U95 chips", "format": "in vivo, cynomolgus monkeys", "conditions": "100 μg/animal/day sc, two weeks"}, "[3]": {"conditions": "compared with untreated OVX controls"}}, "note": "Entries after “also recorded” stand apart in the source; their conditions may differ.", "data": [{"compound": "O=C(c1ccc(OCCN2CCCCC2)cc1)c1c(-c2ccc(O)cc2)sc2cc(O)ccc12", "note": "[Ralolxifene]", "values": [{"measurement": "Fold change relative to SHAM control: Cadherin 11, type 2, OB-cadherin (osteoblast)", "setting": "uterine gene expression; uterus, OVX monkeys", "value": 0.8, "unit": "fold"}, {"measurement": "Fold change relative to SHAM control: Calcium channel, voltage-dependent, beta 2 subunit", "setting": "uterine gene expression; uterus, OVX monkeys", "value": 1.5, "unit": "fold"}, {"measurement": "Fold change relative to SHAM control: Catenin (cadherin-associated protein), alpha-like 1", "setting": "uterine gene expression; uterus, OVX monkeys", "value": 1.5, "unit": "fold"}, {"measurement": "Fold change relative to SHAM control: Dishevelled associated activator of morphogenesis 1", "setting": "uterine gene expression; uterus, OVX monkeys", "value": 0.6, "unit": "fold"}, {"measurement": "Fold change relative to SHAM control: Four and a half LIM domains 2", "setting": "uterine gene expression; uterus, OVX monkeys", "value": 0.6, "unit": "fold"}, {"measurement": "Fold change relative to SHAM control: Integrin, beta 5", "setting": "uterine gene expression; uterus, OVX monkeys", "value": 0.9, "unit": "fold"}, {"measurement": "Fold change relative to SHAM control: LDL receptor adaptor protein", "setting": "uterine gene expression; uterus, OVX monkeys", "value": 1.4, "unit": "fold"}, {"measurement": "Fold change relative to SHAM control: LIM and senescent cell antigen-like domains 1", "setting": "uterine gene expression; uterus, OVX monkeys", "value": 0.8, "unit": "fold"}, {"measurement": "Fold change relative to SHAM control: Mitogen-activated protein kinase kinase kinase kinase 4", "setting": "uterine gene expression; uterus, OVX monkeys", "value": 1.2, "unit": "fold"}, {"measurement": "Fold change relative to SHAM control: Phosphatase and tensin homolog (mutated in multiple advanced cancers 1)", "setting": "uterine gene expression; uterus, OVX monkeys", "value": 0.7, "unit": "fold"}, {"measurement": "Fold change relative to SHAM control: Phospholipid transfer protein", "setting": "uterine gene expression; uterus, OVX monkeys", "value": 0.7, "unit": "fold"}, {"measurement": "Fold change relative to SHAM control: Progesterone receptor", "setting": "uterine gene expression; uterus, OVX monkeys", "value": 0.6, "unit": "fold"}, {"measurement": "Fold change relative to SHAM control: Protein tyrosine kinase 9", "setting": "uterine gene expression; uterus, OVX monkeys", "value": 0.8, "unit": "fold"}, {"measurement": "Fold change relative to SHAM control: Secreted frizzled-related protein 1", "setting": "uterine gene expression; uterus, OVX monkeys", "value": 0.8, "unit": "fold"}, {"measurement": "Fold change relative to SHAM control: Secreted frizzled-related protein 4", "setting": "uterine gene expression; uterus, OVX monkeys", "value": 0.4, "unit": "fold"}, {"measurement": "Fold change relative to SHAM control: Wingless-type MMTV integration site family, member 2B", "setting": "uterine gene expression; uterus, OVX monkeys", "value": 0.8, "unit": "fold"}, {"measurement": "Fold change relative to SHAM control: Wingless-type MMTV integration site family, member 16", "setting": "uterine gene expression; uterus, OVX monkeys", "value": 0.8, "unit": "fold"}, {"measurement": "Fold change relative to SHAM control: Insulin receptor", "setting": "uterine gene expression; uterus, OVX monkeys, Table 46", "value": 1.4, "unit": "fold"}]}, {"compound": "C[C@]12CC[C@@H]3c4ccc(O)cc4CC[C@H]3[C@@H]1CC[C@@H]2O", "note": "[estradiol]", "values": [{"measurement": "Decrease of FSH transcripts in the pituitary gland", "setting": "[1]", "value": 73.4, "unit": "fold"}, {"measurement": "Decrease of LH transcripts in the pituitary gland", "setting": "[1]", "value": 16.4, "unit": "fold"}, {"measurement": "Uterine expression increase: transport genes", "setting": "uterine gene expression", "value": "2-7 fold"}, {"measurement": "Uterine expression downregulation: thioredoxin interacting protein", "setting": "uterine gene expression; compared with OVX control", "value": 3, "unit": "fold"}, {"measurement": "Uterine expression increase: Collagen type 1 alpha 2", "setting": "uterine gene expression; compared with OVX controls", "value": 13.2, "unit": "fold"}, {"measurement": "Uterine expression increase: cell cycle proteins (CDC28 protein kinase regulatory subunit 2)", "setting": "uterine gene expression; compared with OVX controls", "value": "up to 4 fold"}, {"measurement": "Uterine expression increase: collagen type 1 alpha1", "setting": "uterine gene expression; compared with OVX controls", "value": 6.6, "unit": "fold"}, {"measurement": "Uterine expression increase: collagen type III alpha 1", "setting": "uterine gene expression; compared with OVX controls", "value": 6.8, "unit": "fold"}, {"measurement": "Uterine expression increase: collagen type IV alpha 1", "setting": "uterine gene expression; compared with OVX controls", "value": 4.3, "unit": "fold"}, {"measurement": "Uterine expression increase: cysteine-rich angiogenic inducer 61", "setting": "uterine gene expression; compared with OVX controls", "value": 3.5, "unit": "fold"}, {"measurement": "Uterine expression increase: insulin-like GF binding protein 2 (36 kDa)", "setting": "uterine gene expression; compared with OVX controls", "value": 7.1, "unit": "fold"}, {"measurement": "Uterine expression increase: insulin-like growth factor binding protein 5", "setting": "uterine gene expression; compared with OVX controls", "value": 5.2, "unit": "fold"}, {"measurement": "Uterine expression increase: latent transforming growth factor beta binding protein 1", "setting": "uterine gene expression; compared with OVX controls", "value": 3.6, "unit": "fold"}, {"measurement": "Uterine expression increase: Dishevelled associated activator of morphogenesis 1", "setting": "uterine gene expression; [3]", "value": 3.1, "unit": "fold"}, {"measurement": "Uterine expression increase: integrin (beta 5)", "setting": "uterine gene expression; [3]", "value": 1.7, "unit": "fold"}, {"measurement": "Uterine expression increase: progesterone receptor", "setting": "uterine gene expression; [3]", "value": 9.8, "unit": "fold"}, {"measurement": "Uterine expression increase: secreted frizzled-related protein 1", "setting": "uterine gene expression; [3]", "value": 7.1, "unit": "fold"}, {"measurement": "Uterine expression increase: secreted frizzled-related protein 4", "setting": "uterine gene expression; [3]", "value": 4.2, "unit": "fold"}, {"measurement": "Uterine expression increase: wingless-type MMTV integration site (family, member 2B; wnt2B)", "setting": "uterine gene expression; [3]", "value": 2.6, "unit": "fold"}]}, {"compound": "Peptide 3: leukemia inhibitory factor", "values": [{"measurement": "Conclusions of the in vivo Profiling by the Data Mining Team: Function/Pathway", "setting": "[2]", "value": "Ca^++ bone metabolism; also recorded: Inflammation; also recorded: Immunosuppression; also recorded: Vascular differentiation"}, {"measurement": "Findings by the Data Mining Team: Skeletal muscle (gene with direction)", "setting": "[2]", "value": "JunB and haptoglobin and phospholipase A2 typeIIA+"}]}]}
